Measurements: patent US11484599B2, “Polymer conjugate vaccines” (The University of Chicago, priority 2015, dated 2022)

Key:
[1] = system: OVA-specific immune response; assay: Example 11: in vivo immune response after footpad vaccination with OVA formulations; parameters: species or system mice
Method: FIG. 14: Mice were vaccinated at day 0 and day 28 with 10 μg OVA equivalent of the various forms and combinations shown, and were sacrificed on day 35 for analysis. The intensity of the CD8+ T cell response was judged by measuring the frequency of […] (SEQ ID NO. 1) pentamer-binding cells.
FIG. 15: Mice were vaccinated at day 0 and day 28 with 10 μg OVA equivalent of the various forms and combinations shown, and were sacrificed on day 35 for analysis. The cytokine responsiveness of cells in the LN was determined after antigen re-exposure. […] Separation of the formulation into its component parts was not effective: of particular note, free antigen mixed with but not conjugated to the p(Man-TLR) nanoadjuvant (OVA+pManTLR, yellow) was not nearly as effective, showing the need for the conjugate.
FIG. 16: The humoral response to vaccination was characterized by measuring the frequency of antibody-producing plasma cells and the frequency of Tfh cells in the spleen, and the antibody titers in the blood.
Mice were vaccinated in the four footpads on day 0 and 28 with either OVA-p(Man-TLR), OVA and mTLR, OVA conjugated to p(Man) (OVA-p(Man)) and mTLR, OVA+p(Man-TLR) or just p(Man-TLR). Animals treated with formulations containing OVA received 10 μg of OVA in its free or conjugated form, and animals treated with formulations containing TLR received 30 μg of TLR in its free or […] form. The animals were sacrificed on day 35 and the spleens and lymph nodes were analyzed for the resulting immune response.

DCs (CD11c+ cells) = assay: Example 10: in vivo DC activation in draining lymph nodes after footpad injection; parameters: species or system mice; conditions: footpads, 50 μg fluorescently-labeled OVA, 24 h
Source text: Activation is highest in DCs that collect the formulation and thus are also antigen-positive. Thus, both antigen and adjuvant are co-delivered to the same DCs, which are then the cells that are activated. This is one of the benefits of selecting TLR7 as an adjuvant target, based on its intracellular, endosomal localization.
In order to be an effective adjuvant/delivery system for vaccine development, p(Man-TLR) conjugates preferably target antigens to APCs and activate these cells in vivo. Mice were injected in the footpads with 50 μg of fluorescently-labeled OVA conjugated to p(Man-TLR) or free non-conjugated fluorescently-labeled OVA. After 24 h, the draining lymph nodes of these animals were collected and processed into single cells suspensions. The lymphocytes were then analyzed via flow cytometry for the presence of the co-stimulatory molecule markers CD86 and CD80 on APCs. […] Furthermore, CD11c+ cells that had taken up OVA-p(Man-TLR) conjugates (i.e., Protein+CD11c+ cells) had higher levels of expression of CD80 and CD86 as compared to the expression of CD80 and CD86 on the total CD11c+ population of mice treated with OVA-p(Man-TLR).

B16F10/OVA tumors = assay: Example 13: cancer vaccination in mice bearing B16F10/OVA tumors; format: in vivo, C57BL/6 mice
Method: In order to determine if OVA-p(Man-TLR) conjugates could inhibit the growth of OVA-expressing tumors, mice bearing B16F10/OVA tumors (that is, B16F10 melanoma cells expressing the xeno-antigen OVA as a model tumor antigen) were treated with OVA-p(Man-TLR). 10^5 B16F10/OVA cells were inoculated subcutaneously (s.c.) between the scapulae in C57BL/6 mice on day 0 and left to engraft and grow for 4 days. On day 4, 7, and 14, mice were administered saline or vaccinated with OVA-p(Man-TLR) or OVA and free p(Man-TLR). Animals treated with OVA received 10 μg OVA and 40 μg of TLR.

[2] = system: OVA-specific immune response; assay: OVA vaccination day 0 and 28, humoral immune response; format: in vivo, mice
Method: (§1) Mice were immunized on day 0 and 28 with one of […] formulations: 1.) 10 μg of OVA+30 μg, 2.) p(Man-TLR) (30 μg equivalent of TLR7-MA), 3.) 10 μg of OVA and unconjugated p(Man-TLR) (30 μg equivalent of TLR7-MA), 4.) 10 μg of OVA-p(Man) conjugate with 30 μg of TLR7-MA, or 5.) 10 μg of OVA-p(Man-TLR).
In order to initiate protection against extracellular microorganisms and to prevent the spread of intracellular infections, effective vaccines preferably induce a strong humoral immune response. The ability of OVA-p(Man-TLR) to mount an effective humoral immune response was analyzed by determining the percentage of T follicular helper (Tfh) cells in the LN and spleen, the number of antigen specific plasma cells in the spleen, and the OVA specific antibody titers of vaccinated mice. […] Given these impressive results, we analyzed the blood of vaccinated animals for total OVA-specific IgG titers as well as OVA-specific IgG2C titers.

[3] = system: OVA-specific immune response; assay: OVA vaccination day 0 and 28, T cell response after restimulation; format: in vivo, mice
Method: as §1
Given the ability of p(Man-TLR) to activate BMDCS and target tethered proteins to various DC-subsets, mice were treated with OVA-p(Man-TLR) and the OVA-specific immune response was analyzed. Animals were treated on day 0 and 28 with an i.d. injection of OVA-p(Man-TLR), OVA-p(Man)+TLR7-MA, OVA and unconjugated p(Man-TLR), p(Man-TLR), or OVA+CpG. Mice receiving formulations that contained either free or polymer-conjugated OVA were treated with 10 μg of OVA on days 0 and 28. Mice treated with formulations containing either TLR7-MA or p(man-TLR) either free or OVA conjugated received 30 μg of TLR7-agonist as TLR7-MA or the total weight of TLR7-MA monomer units in the polymer on days 0 and 28. Mice treated with OVA and CPG received 30 μg of CPG on days 0 and 28. After 35 days, the lymphocytes from the spleen and lymph node were harvested and restimulated with either whole OVA or the CD8 immunodominant peptide […].

Question: What does the source list for “OVA-p(Man-TLR): model antigen ovalbumin (OVA) conjugated to p(Man-TLR) via self-immolative linker”?
Answer: OVA-specific total IgG vs non-conjugate vaccine (OVA+pMan-TLR) ([1]; FIG. 16): elevated by more than an order of magnitude; CD8+ and CD4+ T cells positive for both TNFα and IFNγ upon restimulation vs other treatments ([1]; day 35): significantly more CD8+ and CD4+ T cells that are positive for both the proinflammatory cytokines TNFα and IFNγ; OVA-specific antibodies in the blood vs other treatments ([1]; day 35): significantly more OVA-specific antibodies in the blood; splenic IgG producing plasma cells and T follicular helper cells vs other treatments ([1]; day 35): significantly more splenic IgG producing plasma cells and T follicular helper cells; OVA pentamer+ cells in lymph nodes and spleens vs other therapies ([1]; footpads day 0 and 28, 10 μg OVA, 30 μg TLR, day 35): significantly more OVA pentamer+ cells in the lymph nodes and spleens; CD80 and CD86 expression on CD11c+ cells of draining lymph nodes vs free OVA (DCs (CD11c+ cells)): express significantly more CD80 and CD86; growth of B16/OVA tumors (B16F10/OVA tumors; treated day 4, 7 and 14, 10 μg OVA and 40 μg of TLR): capable of inhibiting the growth of B16/OVA tumors; pentamer+CD8+ cells in the draining lymph nodes vs OVA+p(Man-TLR) (B16F10/OVA tumors; tumor-bearing mice): induced significantly more pentamer+CD8+ cells in the draining lymph nodes; percentage of OVA pentamer+ cells in the draining lymph nodes (B16F10/OVA tumors; tumor-bearing mice, FIG. 20): increased the percentage of OVA pentamer+ cells in the draining lymph nodes; total OVA-specific IgG and IgG2C titers vs other vaccine formulations ([2]; blood of vaccinated animals): significant increase in both total IgG and IgG2C titers; increase in number of IgG-producing plasma cells vs OVA+p(Man-TLR) or other formulations ([2]; day 35, spleen, FIG. 11C): more than 2 fold; percentage of Tfh in lymph node and spleen vs other treatments ([2]; day 35, vaccination on days 0 and 28): significantly increases the percentage of Tfh in the lymph node and spleen; IFNγ+CD4+ T cells after restimulation vs other treatments ([3]; i.d. day 0 and 28, 10 μg OVA, 30 μg TLR7-agonist, day 35): significantly more IFNγ+CD4+ T cells; IFNγ+CD8 T cells in the lymph nodes vs OVA-p(Man)+TLR7-MA and OVA+CpG ([3]; i.d. day 0 and 28, day 35): increased the number of IFNγ+CD8 T cells in the lymph nodes; TNFα positive CD8+ and CD4+ T cells in restimulated splenocytes vs other TLR7-MA or p(Man-TLR) formulations ([3]; i.d. day 0 and 28, day 35): significantly increased the number of CD8+ and CD4+ T cells that are positive for TNFα
